In patent US20090124599A1, “Fungicidal Mixtures” (Basf Aktiengesellschaft, priority 2004, published 2009):

Key:
Botrytis cinerea = assay: Activity against the gray mold pathogen Botrytis cinerea in the microtiter test; assay type: cell-based; conditions: single active, day 7 after inoculation, absorption 405 nm
Phytophthora infestans = assay type: in vivo, Phytophthora infestans on tomato plants; conditions: 16 ppm; single active; sprayed 5 days before infection, assessed after 6 days; control 90% infection

| SMILES | Observed efficacy (%) (Botrytis cinerea; 0.063 ppm) | Observed efficacy (%) (Phytophthora infestans) | Observed efficacy (%) (Botrytis cinerea; 0.125 ppm) | Observed efficacy (%) (Botrytis cinerea; 0.25 ppm) |
| --- | --- | --- | --- | --- |
| O=[N+]([O-])c1cc(C(F)(F)F)c(Cl)c([N+](=O)[O-])c1Nc1ncc(C(F)(F)F)cc1Cl [fluazinam (II-1), 3-chloro-N-[3-chloro-2,6-dinitro-4-(trifluoromethyl)phenyl]-5-(trifluoromethyl)-2-pyridineamine] | 35 | 22 | – | – |
| Cc1cc(C)nc(Nc2ccccc2)n1 [pyrimethanil (II-9)] | – | – | 70 | – |
| CO/C=C(/C(=O)OC)c1ccccc1CO/N=C(C)/C=C/c1ccc(Cl)cc1 [enestroburin (I), methyl 2-{2-[3-(4-chlorophenyl)-1-methylallylideneaminooxymethyl]phenyl}-3-methoxyacrylate] | 0 | – | 0 | 0 |
